The text below walks through data of patent publication US20250041303A1, “COMBINATION THERAPY FOR CANCER TREATMENT” (INSTITUTE FOR CANCER RESEARCH D/B/A THE RESEARCH INSTITUTE …, priority 2021, published 2025).

In data set [1] the test system is A1847 and SUM159 parental and degrader-resistant cells. In words: CellTiter-Glo cell viability, parental vs degrader-resistant cells. On the technique in general: Cellular ATP, detected with luciferase, serves as a proxy for viable cell number.
The next data set has as its system DLD-1 cells. As to the kind of experiment: Colony formation assay (14 days) in DLD-1 cells. To be noted: for colony formation on co-treatment with dBET6: dBET6 0.1 μM plus the compound at 2 μM, 14-day period.
Data set [2] has as its target T1, MDR1 (Homo sapiens, UniProt P08183). In words: Rhodamine 123 efflux assay in degrader-resistant cells. The format is cell-based. On the set-up: endogenous in cells; host or cells: A1847 parental, dBET6-R, Thal-R; SUM159 parental, MZ1-R. To be noted: 2 μM. The procedure: (§1) Efflux assay was performed according to manufacturer's protocol (Millipore Sigma #ECM910). Cells were resuspended in cold efflux buffer and incubated with Rhodamine 123 for 1 hour on ice. Cells were centrifuged and treated in warm efflux buffer with DMSO or drug for 30-60 minutes, washed with cold PBS, and effluxed dye was quantified with a plate reader at an excitation wavelength of 485 nm and an emission wavelength of 530 nm.

A further data set addresses T2, BRD4 (BET proteins) (Homo sapiens, UniProt O60885).
T2 construct: endogenous in cells; host or cells: DLD-1
As to the kind of experiment: Western blot of BET protein/BRD4 degradation in DLD-1 cells. In kind it is cell-based. To be noted: 4 hours; for dBET6-mediated degradation of BRD4 on combined treatment: increasing doses of dBET6 plus the compound at 2 μM. Background: A western blot detects proteins with antibodies after separation by electrophoresis.

Another data set relates to MDR1 (ABCB1). In words: Single-run proteomics (LC-MS/MS, label-free quantitation) of degrader-resistant cells. In kind it is cell-based, human. The protocol:
To determine changes in cells chronically exposed to BET or CDK9 PROTACs, we performed single-run proteome analysis as previously described (Lai et al., Front. Oncol., 2020, 10, 2336). Briefly, WT or PROTAC-R cells were lysed in 50 mM HEPES pH 8.0+4% SDS, and 100 μg of proteins were digested using LysC and trypsin. Digested peptides were isolated using C-18 and PGC columns, then dried and cleaned with ethyl acetate. Three […] peptides were analyzed using LC-MS/MS. MaxQuant normalized LFQ values were imported into Perseus software (1.6.2.3) and filtered in the following manner: kinases identified by site only were removed, reverse, or potential contaminant were removed then filtered for kinases identified by >1 unique peptide. Protein LFQ values were log 2 transformed, filtered for a minimum valid number of 3, normalized using Z-scores, annotated, and subjected to a Student's t-test with comparing […]. […]
Proteolytic peptides were resuspended in 0.1% formic acid and separated with a Thermo Scientific RSLC nano Ultimate 3000 LC on a Thermo Scientific Easy-Spray C18 PepMap 75 μm×50 cm C-18 2 μm column. […] Eluted peptides were analyzed by Thermo Scientific Q Exactive or Q Exactive plus mass spectrometers utilizing a top 15 methodology in which the 15 most intense peptide precursor ions were subjected to fragmentation. […]
Raw data analysis of LFQ experiments was performed using MaxQuant software 1.6.1.0 and searched using Andromeda 1.5.6.0 against the Swiss-Prot human protein database (downloaded on Apr. 24, 2019, 20402 entries). […] LFQ quantitation was performed using MaxQuant with the following parameters; LFQ minimum ratio count: Global parameters for protein quantitation were as follows: label minimum ratio count: 1, peptides used for quantitation: unique, only use modified proteins selected and with normalized average ratio estimation selected. Match between runs was employed for LFQ quantitation and the significance threshold of the ion score was calculated based on a false discovery rate of <1%.

The test system of data set [3] is OVCAR3, HCT116, and MOLT4 cells. As to the kind of experiment: CellTiter-Glo cell viability, parental vs MZ1 chronically exposed cells. To be noted: 5 days.
A further data set has as its system ABCB1 (MDR1). In words: ABCB1 expression and MDR1 protein by qRT-PCR and immunoblot after chronic MZ1 exposure. The format is cell-based. The procedure: GeneJET RNA purification kit (Thermo Scientific) was used to isolate RNA from cells according to manufacturer's instructions. qRT-PCR on diluted cDNA was performed with inventoried TaqMan® Gene Expression Assays on the Applied Biosystems 7500 Fast Real-Time PCR System. The TaqMan Gene Expression Assay probes (ThermoFisher Scientific) used to assess changes in gene expression include ABCB1 (Assay ID: Hsxxxx), and ACTB (control) (Assay ID: Hsxxxx).
A general note: In qPCR the cycle at which signal appears reflects the starting amount.

The subject of data set [4] is BET proteins (BRD2, BRD3 or BRD4). In words: Western blot of BET protein degradation, parental vs degrader-resistant cells. The format is cell-based. To be noted: for degradation of BET proteins by escalating doses: 0-10 μM, 24 hours.
Description: (§2) Samples were harvested in MIB lysis buffer (50 mM HEPES (pH 7.5), 0.5% Triton X-100, 150 mM NaCl, 1 mM EDTA, 1 mM EGTA, 10 mM sodium fluoride, 2.5 mM sodium orthovanadate, 1× protease inhibitor cocktail (Roche), and 1% each of phosphatase inhibitor cocktails 2 and 3 (Sigma)). Particulate was removed by centrifugation of lysates at 21,000 rpm for 15 minutes at 4° C. Lysates were subjected to SDS-PAGE chromatography and transferred to PVDF membranes before western blotting with primary antibodies. […] Secondary HRP-anti-rabbit and HRP-anti-mouse were obtained from ThermoFisher Scientific. SuperSignal West Pico and Femto Chemiluminescent Substrates (Thermo) were used to visualize blots.
The test system of another data set is A1847 or SUM159 cells. In words: Colony formation assay (14 days, crystal violet). To be noted: SUM159 cells expressing Flag-MDR1, MZ1 0.1 μM, with or without tariquidar 0.1 μM.
For data set [5], the system named is HCT-15, DLD-1 and CAKI-1 cells (MDR1 overexpressing). In words: CellTiter-Glo cell viability of MDR1 overexpressing vs low MDR1 cancer cell lines. To be noted: HCT-15, DLD-1, CAKI-1 vs A1847, SUM159, MOLT4; escalating doses, 5 days.
The target in data set [6] is T3, CDK9 (Homo sapiens, UniProt P50750). As to the kind of experiment: Western blot of CDK9 degradation, A1847 parental vs Thal-R cells. To be noted: A1847 Thal-R vs parental; 2 μM, 4 hours. In kind it is cell-based.
Description: as §2
The target of data set [7] is T3, CDK9. As to the kind of experiment: Western blot of CDK9 degradation in DLD-1 cells. The format is cell-based. On the set-up: endogenous in cells; host or cells: DLD-1. To be noted: DLD-1; increasing doses of Thal SNS 032 plus the compound at 2 μM, 4 hours.
Description: as §2
In data set [8] the test system is A1847 dBET6-R or Thal-R cells. In words: Apoptosis by western blot in degrader-resistant A1847 cells. In kind it is cell-based. To be noted: 2 μM, 4 hours.
Description: as §2
Data set [9] has as its target T1, MDR1. In words: Rhodamine 123 efflux assay in DLD-1 cells. To be noted: 2 μM. In kind it is cell-based. On the set-up: endogenous in cells. The procedure: as §1
[10] abbreviates: A1847 parental vs chronically exposed cells, escalating doses, 5 days.

T1 sequence (P08183 whole entry): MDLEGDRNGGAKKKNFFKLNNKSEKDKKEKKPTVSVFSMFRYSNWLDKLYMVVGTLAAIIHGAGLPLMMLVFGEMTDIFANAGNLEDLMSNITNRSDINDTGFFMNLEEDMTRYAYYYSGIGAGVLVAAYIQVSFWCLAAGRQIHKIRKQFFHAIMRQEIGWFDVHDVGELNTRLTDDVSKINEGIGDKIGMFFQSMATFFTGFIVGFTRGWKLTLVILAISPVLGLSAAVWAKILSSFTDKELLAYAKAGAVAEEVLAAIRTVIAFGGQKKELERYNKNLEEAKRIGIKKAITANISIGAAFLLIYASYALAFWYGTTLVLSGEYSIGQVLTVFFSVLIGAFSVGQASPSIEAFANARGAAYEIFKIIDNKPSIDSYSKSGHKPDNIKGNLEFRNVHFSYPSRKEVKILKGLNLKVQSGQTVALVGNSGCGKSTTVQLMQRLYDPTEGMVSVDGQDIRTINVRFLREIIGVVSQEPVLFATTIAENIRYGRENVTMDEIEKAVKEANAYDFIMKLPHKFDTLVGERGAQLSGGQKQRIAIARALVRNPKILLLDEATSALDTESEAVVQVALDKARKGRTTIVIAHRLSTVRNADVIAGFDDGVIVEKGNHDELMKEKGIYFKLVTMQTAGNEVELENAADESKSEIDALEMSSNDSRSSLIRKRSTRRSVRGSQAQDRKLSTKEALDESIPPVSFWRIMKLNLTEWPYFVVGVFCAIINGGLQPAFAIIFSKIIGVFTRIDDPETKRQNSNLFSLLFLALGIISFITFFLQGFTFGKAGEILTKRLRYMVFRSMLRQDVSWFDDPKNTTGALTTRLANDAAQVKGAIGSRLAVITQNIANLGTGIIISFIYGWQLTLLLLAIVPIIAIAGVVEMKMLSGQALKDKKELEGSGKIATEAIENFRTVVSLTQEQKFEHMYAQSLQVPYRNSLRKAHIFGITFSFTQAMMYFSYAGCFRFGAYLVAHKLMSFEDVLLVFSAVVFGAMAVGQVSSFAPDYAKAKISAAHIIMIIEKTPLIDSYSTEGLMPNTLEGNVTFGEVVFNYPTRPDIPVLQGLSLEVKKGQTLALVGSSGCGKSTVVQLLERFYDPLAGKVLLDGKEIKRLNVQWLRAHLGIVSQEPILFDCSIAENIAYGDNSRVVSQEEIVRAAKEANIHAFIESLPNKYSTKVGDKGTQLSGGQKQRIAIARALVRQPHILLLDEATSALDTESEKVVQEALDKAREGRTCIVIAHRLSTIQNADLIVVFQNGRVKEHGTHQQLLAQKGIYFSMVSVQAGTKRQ
T3 sequence (P50750 whole entry): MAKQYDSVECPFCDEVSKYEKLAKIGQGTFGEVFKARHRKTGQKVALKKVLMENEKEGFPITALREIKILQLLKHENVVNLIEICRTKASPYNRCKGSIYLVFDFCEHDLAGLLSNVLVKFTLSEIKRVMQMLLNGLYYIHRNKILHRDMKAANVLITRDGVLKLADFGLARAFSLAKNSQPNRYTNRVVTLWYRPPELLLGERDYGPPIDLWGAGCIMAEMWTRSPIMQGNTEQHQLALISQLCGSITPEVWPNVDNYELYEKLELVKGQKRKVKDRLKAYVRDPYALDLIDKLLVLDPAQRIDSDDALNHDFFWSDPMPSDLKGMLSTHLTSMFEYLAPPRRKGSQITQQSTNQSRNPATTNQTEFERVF
T3 sequence (O60563 whole entry partner): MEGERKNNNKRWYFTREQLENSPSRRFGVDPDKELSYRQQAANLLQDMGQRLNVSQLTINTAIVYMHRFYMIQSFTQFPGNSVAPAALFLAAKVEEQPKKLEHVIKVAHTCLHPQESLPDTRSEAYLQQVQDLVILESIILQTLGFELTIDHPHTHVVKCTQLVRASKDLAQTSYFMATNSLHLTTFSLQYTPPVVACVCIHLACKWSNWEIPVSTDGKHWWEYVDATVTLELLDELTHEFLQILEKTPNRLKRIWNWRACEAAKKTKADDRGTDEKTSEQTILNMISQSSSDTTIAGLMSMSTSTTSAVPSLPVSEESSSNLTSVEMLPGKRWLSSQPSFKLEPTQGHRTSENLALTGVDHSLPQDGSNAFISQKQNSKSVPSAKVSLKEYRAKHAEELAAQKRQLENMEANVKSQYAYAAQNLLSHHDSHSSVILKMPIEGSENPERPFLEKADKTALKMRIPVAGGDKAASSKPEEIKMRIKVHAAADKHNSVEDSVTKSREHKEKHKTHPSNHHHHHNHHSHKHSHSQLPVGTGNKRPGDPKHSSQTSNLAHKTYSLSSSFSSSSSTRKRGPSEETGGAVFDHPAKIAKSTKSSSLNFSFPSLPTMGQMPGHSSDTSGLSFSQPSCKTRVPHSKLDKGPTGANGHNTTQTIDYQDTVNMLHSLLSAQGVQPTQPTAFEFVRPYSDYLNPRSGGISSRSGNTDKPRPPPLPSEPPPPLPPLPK
Description for BRD4 (BET proteins): as §2

Take `Cc1sc2c(c1C)C(c1ccc(Cl)cc1)=N[C@@H](CC(=O)OC(C)(C)C)c1nnc(C)n1-2` [JQ1]: the “sensitization to tariquidar after chronic exposure” value in [1] (A1847 JQ1-R vs parental and dBET6-R cells) is recorded as “did not cause sensitization to tariquidar”.

With `COc1ccc(-c2ccc3c(N4CCOCC4)nc(N4C[C@@H](C)O[C@@H](C)C4)nc3n2)cc1CO` [KU-0063794], in the data set on DLD-1 cells (2 μM, 14 days), the “colony formation, single agent” value is “completely repressed colony formation”. Besides, the “colony formation on co-treatment with dBET6” value in the data set with DLD-1 cells is on record as “did not improve growth inhibition”. Also, the “MDR1 drug efflux activity (Rhodamine 123 efflux)” value (“MDR1 drug efflux activity” for short) at MDR1 [2] (A1847 Thal-R cells) is on record as “does not reduce MDR1 drug efflux activity”. Also, at BRD4 (BET proteins), the “dBET6-mediated degradation of BRD4 on combined treatment” value is given as “failed to improve degradation of BRD4”.

As to `Cc1ncsc1-c1ccc(CNC(=O)[C@@H]2C[C@@H](O)CN2C(=O)[C@@H](NC(=O)COCCOCCOCCNC(=O)C[C@@H]2N=C(c3ccc(Cl)cc3)c3c(sc(C)c3C)-n3c(C)nnc32)C(C)(C)C)cc1` [MZ1], the “MDR1 protein levels upregulated relative to parental cell lines by LFQ analysis” value with MDR1 (ABCB1) (A1847 cells chronically exposed to the degrader (degrader-R) vs parental) is 5-5 fold. For the same compound, the “MDR1 protein increase compared to parental cells (proteomics)” value in the data set with MDR1 (ABCB1) (SUM159 MZ1-R cells vs parental) was ~4.5 fold. The “sensitivity after chronic exposure (cell viability)” value in data set [3] (MOLT4 parental or MZ1-R cells) was “retain sensitivity”. In data set [3] (OVCAR3 and HCT116, chronic exposure), the “acquired resistance (cell viability)” value is on record as “acquired resistance”. The “ABCB1 expression after chronic exposure” value in the data set with ABCB1 (MDR1) (MOLT4 cells) is “do not induce ABCB1 expression”. In addition, the “MDR1 mRNA and protein levels after chronic exposure” value in the data set on ABCB1 (MDR1) (OVCAR3 and HCT116 MZ1-R cells) was “elevated MDR1 mRNA and protein levels”. Further, the “degradation of BET proteins by escalating doses” value in data set [4] (A1847 parental vs chronically exposed cells) and in data set [4] (SUM159 parental vs MZ1-R cells) was “less effective at inducing degradation of BET proteins” in each case. For the same compound, the “colony formation with forced expression of Flag-MDR1” value in the data set on A1847 or SUM159 cells is reported as “rescued colony formation growth”. Moreover, in data set [5], the “cell viability of MDR1 overexpressing cells” value is recorded as “did not reduce cell viability to the extent of cancer cell lines expressing low or no detectable MDR1 protein”. The “acquired resistance (cell viability dose-response)” value was “acquire resistance” in data set [1] (setting [10]) and “resulted in degrader-resistance” in [1] (SUM159 parental vs chronically exposed (MZ1-R) cells, 5 days).

Take `CO[C@H]1C[C@@H]2CC[C@@H](C)[C@@](O)(O2)C(=O)C(=O)N2CCCC[C@H]2C(=O)O[C@H]([C@H](C)C[C@@H]2CC[C@@H](OCCO)[C@H](OC)C2)CC(=O)[C@H](C)/C=C(\C)[C@@H](O)[C@@H](OC)C(=O)[C@H](C)C[C@H](C)/C=C/C=C/C=C/1C` [RAD001, Everolimus]: on CDK9 [6], the “degradation of CDK9 in degrader-resistant cell lines” value was “resulted in degradation of BET proteins (FIG. 5, Panel G; FIG. 12, Panels E and F) or CDK9”. The “degradation of CDK9 by Thal SNS 032 on combined treatment” value at CDK9 [7] is given as “improving degradation of CDK9”. Also, in the data set with DLD-1 cells (compound at 2 μM, 14 days), the “growth inhibition of colonies on combination with Thal SNS 032” value is recorded as “enhancing growth inhibition of colonies”. For the same compound, the “colony formation on co-treatment with dBET6” value in the data set with DLD-1 cells is on record as “exhibits drug synergy”. For the same compound, the entries for the “MDR1 drug efflux activity” value at MDR1 [2] (A1847 dBET6-R or Thal-R cell lines) and at MDR1 [9] were “reduced MDR1 drug efflux activity similar to that observed with tariquidar” and “reduced MDR1 drug efflux activity similar to tariquidar-treatment”, respectively. Moreover, the “degradation of BET proteins in degrader-resistant cell lines” value in data set [4] (A1847 dBET6-R or MZ1-R vs parental, 2 μM, 4 hours) is “resulted in degradation of BET proteins”. Also, the “apoptosis in degrader-resistant cell lines” value in data set [8] is recorded as “resulted in apoptosis similar to tariquidar treatment”. In addition, the “reduction in concentrations of dBET6 required to degrade BRD4 when combined” value on BRD4 (BET proteins) (combined with the compound at 2 μM) stood at 100 fold. For the same compound, the “dBET6-mediated degradation of BRD4 on combined treatment” value at BRD4 (BET proteins) is “improved dBET6-mediated degradation of BRD4”. For the same compound, in [1] (increasing concentrations, A1847 dBET6-R, Thal-R, MZ1-R and SUM159 MZ1-R), the “sensitivity of degrader-resistant cells vs parental cells (cell viability)” value was “more sensitive”.

Consider `CN(C)C/C=C/C(=O)Nc1cc2c(Nc3ccc(F)c(Cl)c3)ncnc2cc1O[C@H]1CCOC1` [afatinib], for which the “MDR1 drug efflux activity” value on MDR1 [2] (A1847 Thal-R cells) is “does not reduce MDR1 drug efflux activity”.

Consider `Cc1sc2c(c1C)C(c1ccc(Cl)cc1)=N[C@@H](CC(=O)NCCCCCCCCNC(=O)COc1cccc3c1C(=O)N(C1CCC(=O)NC1=O)C3=O)c1nnc(C)n1-2` (some centres unmarked) [dBET6], for which, in data set [5], the “cell viability of MDR1 overexpressing cells” value is “did not reduce cell viability to the extent of cancer cell lines expressing low or no detectable MDR1 protein”. The “acquired resistance (cell viability dose-response)” value in [1] (setting [10]) is reported as “acquire resistance”.

`CC(=O)O[C@H]1C(=O)[C@@]2(C)[C@H]([C@H](OC(=O)c3ccccc3)[C@]3(O)C[C@H](OC(=O)[C@H](O)[C@@H](NC(=O)c4ccccc4)c4ccccc4)C(C)=C1C3(C)C)[C@]1(OC(C)=O)CO[C@@H]1C[C@@H]2O` [paclitaxel]: the “resistance to MDR1 substrate (cell viability)” value in data set [1] (BET protein or CDK9 degrader-resistant A1847 cells vs parental, 5 days) is given as “acquired resistance”.
